The test system of one data set is CCRF-CEM cells. Nature of the data set: Cell Culture Study I: MTX cytotoxicity, alamarBlue. It counts as cell-based, human. The conditions noted are these: 72 hours. On the procedure:
In this study, CCRF-CEM cells purchased from ATCC were cultured and then 12 tubes containing approximately 10^6 cells each treated for 72 hours with media (Group1), MTX 0.03 μM (Group2), MTX+Leucovorin 1 μM (Group3), MTX+Leucovorin 10 μM (Group4), MTX+Leucovorin 100 μM (Group5), MTX+TK-112690 1 μM (Group6), MTX+TK-112690 10 μM (Group7) and MTX+TK-112690 100 μM (Group8). […] Viability was measured as percent reduction of alamarBlue absorbance.
The tumor cell line CCR-CEM (human T-cell acute lymphoblastic leukemia) is obtained from American Type Culture Collection (CRL-1593.2) and cultured in accordance with the product information sheet with the following exceptions: 55.3 cm^2 Petri dishes are used instead of 75 cm^2 culture flasks, and 1% penicillin-streptomycin solution (HyClone SV30010) and 1% GlutaMAX™ (Gibco 35050) are added to the culture medium.
TK-112690, the representative 2,2′-anhydropyrimidine test article, is dissolved in 40% DMSO, sterile filtered then diluted with sterile distilled water to obtain initial working solutions of 10, 100 and 1000 μM. In testing, a 100 fold dilution is made in culture media to give final assay concentrations of 0.1, 1.0 and 10.0 μM. MTX (SAFC Biosciences M8407) is dissolved in sterile distilled water and 5 N NaOH then sterile filtered. The final pH of the stock solution is 7.8 and working solutions are made with sterile distilled water for final assay concentrations of 30, 3.0, 0.3, 0.03 and 0.003 μM. Leucovorin (Sigma F-7878) is dissolved in sterile distilled water, sterile filtered and diluted with sterile distilled water for final assay concentrations of 0.1, 1.0 and 10.0 μM.
Aliquots of 100 μL of cell suspension are plated in 96 well microtiter plates (Corning costar 3595) and placed in an atmosphere of 5% CO2 at 37° C. (Fisher Scientific Isotemp 3500 CO2 Incubator). After 24 hours, 100 μL of growth medium [RPMI-1640 w/L-glutamine (Cambrex 12-702Q) fortified with sodium pyruvate (HyClone SH30239.01), fetal bovine serum (SAFC Biosciences 12107C) and HEPES buffer (Gibco 15630)] and 2 μL of test solution or vehicle are added respectively per well and the plates incubated for an additional 72 hour incubation. MTX is evaluated at concentrations of 0.003, 0.03, 0.30 and 3.0 μM alone or in combination with either a 2,2′-anhydropyrimidine test article or Leucovorin at concentrations of 0.1, 1.0, 10.0 μM. At the end of incubation, the efficacy of anti-cell proliferation is determined by optical absorbance at λ=570 and 600 nm [Spectramax 250 (Molecular Devices)] in accordance with the standard alamarBlue™ (Biosource) protocol.
Group 1 is the cell control (media treated). Group 2 corresponds to cells treated with 0.03 μM MTX. Group 3 are cells treated with 1.0 μM Leucovorin. Group 4 are cells treated with 0.1 μM Leucovorin. Group 5 are cells treated with 10 μM TK-112690. Group 6 are cells treated with MTX+10 μM TK-112690. Group 7 are cells treated with MTX+1.0 μM TK-112690. Group 8 MTX+0.1 μM TK-112690.

For data set [1], the system named is Wild-type (Oregon-R) Drosophila melanogaster. Nature of the data set: Fly Study II: MTX lethality in wild-type flies. The conditions noted are these: for MTX dose with lethal effects in wild-type flies: orally in food admix, scored 15 days after initiation. It is filed as in vivo. As for the experimental part: (§1) Embryos of UPase knockout (19519) Drosophila melanogaster were orally exposed to a dose range of MTX doses in food admix. Embryos of Wild-type (Oregon-R) were orally exposed to the same dose range of MTX in presence and absence of 0.04 mg TK-112690. Scoring was based on life or death 15 days after initiation of MTX exposure. […] Wild-type D. melanogaster are sensitive to lethal effects of ≥0.1 mg MTX.
(§2) The aim of this study was to evaluate the lethal effects of a range (0.001, 0.01, 0.05, 0.1, 0.2, 0.4 mg) of doses of orally fed MTX in wild-type (Ore-R) and UPase mutant Drosophila melanogaster. Embryos of UPase knockout (19519) Drosophila melanogaster were orally exposed to a dose range of MTX (0.001, 0.01, 0.05, 0.1, 0.2, 0.4 mg) in food admix. Embryos of Wild-type (Oregon-R) were orally exposed to the same dose range of MTX in presence and absence of 0.04 mg TK-112690. Scoring was based on life or death 15 days after initiation of MTX exposure.

Data set [2] relates to UPase knockout (19519) Drosophila melanogaster. Nature of the data set: Fly Study II: MTX lethality in UPase knockout flies. It counts as in vivo. On the procedure: as §1, §2
Data set [3] addresses mouse small intestinal UPase enzyme (Mus musculus, UniProt P52624). Nature of the data set: UPase inhibition in mouse small intestinal tissue homogenate (HPLC of uracil). It is filed as biochemical. As for the experimental part: A range of TK-112690 doses were studied for the their ability to prevent metabolic breakdown of uridine through the in vitro inhibition of mouse and human small intestinal UPase enzyme. UPase activity was determined by HPLC analysis using UV detection of uracil concentration (UPase catabolizes uridine into uracil and ribose-1-phosphate). The UPase enzyme material was prepared from homogenized mouse and human being small intestinal tissue. TK-112690 was dissolved in water (50 mg/ml) and analyzed for UPase inhibition in aqueous solution containing 5 mM uridine, 0.01 M Tris, 0.01 M phosphate, 1 mM EDTA, and 1 mM DTT. Reactions were performed at 37° C. at pH of 7.3.
The aim of this study was to evaluate TK-112690 […] as an inhibitor of uridine phosphorylase (UPase) enzyme activity. The range of TK-112690 doses studied for ability to prevent metabolic breakdown of uridine, through the in vitro inhibition of mouse and human small intestinal UPase enzyme, was 0, 0.1, 0.5, 1, 5, 10, 50, 100, 500, 1000, 5000 and 10000 μM). Detection of UPase activity was determined by HPLC analysis using UV detection of uracil concentration (UPase catabolizes uridine into uracil and ribose-1-phosphate).
The UPase enzyme material was prepared from homogenized mouse and human being small intestinal tissue. TK-112690 was dissolved in water (50 mg/ml) and analyzed for UPase inhibition in aqueous solution containing 5 mM uridine, 0.01 M Tris, 0.01 M phosphate, 1 mM EDTA, and 1 mM DTT. Reactions were performed at 37° C. at pH of 7.3.
TK-11260 inhibition of mouse and human UPase was analyzed by reverse phase HPLC using UV detection. HPLC analysis was performed at ambient temperature with a Water 2695 Alliance system equipped with a C18 ECONOSIL 5 U ALLtech column. 20 μl of UPase reaction samples were auto-injected onto column. Mobile phase consisted of water eluting for first 2.5 ml and acetonitrile gradient to 100% in 12.5 ml (flow rate 0.5 ml/min). The outlet fluent was monitored by UV absorption in the range of 240-320 nm. UPase enzymatic activity was based on the AUC of the uracil peaks.

The text below walks through data of patent publication USRE48253E1, “Methotrexate adjuvants to reduce toxicity and methods for using the same” (Tosk, Inc., priority 2008, dated 2020).

Read-outs that look alike come from different tables or passages of the source.

Sequence of mouse small intestinal UPase enzyme (P52624 whole entry, looked up): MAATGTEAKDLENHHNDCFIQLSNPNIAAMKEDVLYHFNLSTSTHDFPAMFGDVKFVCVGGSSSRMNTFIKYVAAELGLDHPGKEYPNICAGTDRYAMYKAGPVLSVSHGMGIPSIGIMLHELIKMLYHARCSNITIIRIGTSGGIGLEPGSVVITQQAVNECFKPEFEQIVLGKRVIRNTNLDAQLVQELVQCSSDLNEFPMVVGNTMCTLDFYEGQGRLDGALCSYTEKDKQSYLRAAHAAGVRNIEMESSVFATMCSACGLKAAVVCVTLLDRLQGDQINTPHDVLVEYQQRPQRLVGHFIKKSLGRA

`CN(Cc1cnc2nc(N)nc(N)c2n1)c1ccc(C(=O)N[C@@H](CCC(=O)O)C(=O)O)cc1` [MTX, N-[4-[[(2,4-diamino-6-pteridinyl)methyl]methylamino]benzoyl]-L-glutamic acid, reference compound]: the “viability, MTX alone vs cell control” value in the data set on CCRF-CEM cells (MTX 0.03 μM) is “statistically significantly different from Group1”. Besides, the “MTX dose with lethal effects in wild-type flies” value is reported as no less than 0.1 mg in data set [1] and 0.1 mg in data set [1] (listed as Methotrexate). For the same compound, the “lethal effects of MTX in UPase knockout flies” value in data set [2] (MTX 0.001-0.4 mg orally) is given as “resistant to lethal effects”.

Take `Cc1cn2c(nc1=O)O[C@H]1[C@H](O)[C@@H](CO)O[C@H]12` [TK-112690, 2,2′-anhydro-5-methyluridine]: the IC50 in data set [3] (5 mM uridine, 37° C., pH 7.3, read-out: IC50, mouse small intestinal (murine) UPase) was 12.5 µM; in data set [3] (Table 3, murine UPase, test method of Experiment IX, read-out: UPase IC50), less than 100 µM. Besides, in the data set with CCRF-CEM cells (combined with MTX 0.03 μM), the “effect on MTX cytotoxicity (viability, alamarBlue)” value was “do not interfere with methotrexate cytotoxicity”. Moreover, the “viability, agent alone vs control” value with CCRF-CEM cells (without MTX) is given as “not statistically different than control”. For the same compound, in data set [1] (0.04 mg TK-112690), the “methotrexate dose from whose lethality protection is provided” value is no more than 0.4 mg. The “protection of wild-type flies from lethal effects of MTX” value in data set [1] (0.04 mg TK-112690, MTX 0.001-0.4 mg) is recorded as “resistant to the lethal effects”. The “added protection from methotrexate toxicities in UPase mutant flies” value in data set [2] (TK-112690 added to dose range of methotrexate) is “does not provide added protection”.
